This note sets out measurements from patent US5218000A, “Therapeutic polyamine-amides” (priority 1988, dated 1993).

The subject of test [1] is invertebrate L-quisqualate sub-type L-glutamate receptor and its ion channel. Briefly: locust isolated retractor unguis nerve-muscle preparation, twitch amplitude on electrical stimulation. The class given is cell-based, Schistocerca gregaria. The settings on record: for IC50: locust retractor unguis muscle, electrically stimulated. On the procedure: The compounds were assayed for biological activity on the isolated, retractor unguis nerve-muscle preparation of the locust Schistocerca gregaria (Usherwood, P.N.R and Machili, P. (1968) J. Exp. Biol., 49: 341.). Isolated muscle preparations were bathed continuously in standard locust saline in a bath of volume 250 μl. Twitch tension recordings of the muscle were made to electrical stimulation of its motor innervation supramaximal voltage, frequency 0.1 Hz).
The locust isolated retractor unguis nerve-muscle is a preparation with well characterised muscle receptors belonging to the quisqualate-sensitiveclass (Boden, P. et al., (1986) Brain Res., 385: 205.). This preparation has previously been employed to identify antogonists of excitatory amino acid receptors, (e.g. Bateman, A. et al., (1985) Brain Res., 339: 237 and Budd, T. et al., (1988) Brain Res., 448: 30.). Excitatory amino acid receptors are also believed to be of considerable importance in the mammal and for therapeutic applications.
The potency of this monoacylated spermine as an antagonist of the complex formed by the invertebrate L-quisqualate sub-type L-glutamate receptor and its ion channel was assayed using the electrically stimulated retractor unguis muscle of the locust (Schistocerca gregaria). Twitch amplitude was reduced ([…]) from control (100%) levels at the following concentrations: […]

Test [2] concerns quizqualate receptor. Briefly: rat cerebral cortex slice (wedge, grease-gap), AMPA-induced depolarisation response. Type of test: cell-based, Wistar rats. The settings on record: rat brain slice. The text has this:
(§1) Coronal slices of cerebral cortex were cut with a Vibratome from the brains of freshly killed Wistar rats. Wedges of tissue were cut from either side of the mid-line to include the cortex and corpus callosum. The wedges were mounted in a grease-gap apparatus such that the cortex protruded into one compartment and the corpus callosum into the other compartment of a two-compartment bath, (Harrison N. L. & Simmonds M. A. (1985). Br. J. Pharmacol 84: 381-391.). Each compartment could be separately perfused with Krebs bicarbonate medium pre-gassed with 95% 02 /5% CO2 at room temperature. The volume of each compartment was 1.8 ml and the perfusion rate was 2 ml/min. The compartment containing the cortical part of the wedge was also gassed directly so that drugs could be injected into the bath with the perfusion pump stopped. This variant on the published method was adopted to minimise the amount of drug required. The potential difference between the two compartments was recorded continously via Ag/AgCl electrodes. […]
(§2) The potency of this monoacylated spermine was tested as an antagonist of NMDA- and AMPA- induced response in a rat brain slice model. Electrophysiologically recorded depolarisation responses were reduced from control levels (% inhibition) at the following concentrations: […]

Test [3] concerns NMDA receptor. Briefly: rat cerebral cortex slice (wedge, grease-gap), NMDA-induced depolarisation response. To be noted: rat brain slice, Mg2+ omitted. The class given is cell-based, Wistar rats.
Text: as §1, §2

The mark [4] stands for this setting: read-out: IC50 (reduction of twitch amplitude).
The mark [5] stands for this setting: approximate, read-out: concentration at which an approximately 50% reduction of twitch amplitude was obtained.

Molecules are shown by their SMILES. Where two headings read alike, the source gives them in different places.

Consider `NCCCNCCCCNCCCNC(=O)Cc1ccccc1O` [Example 1, N-(2-Hydroxyphenylacetyl)-spermine], for which the inhibition of twitch in test [1] (1.5 × 10^-4 M) came out at 85%; in test [1] (1.5 × 10^-5 M), 30%; in test [1] (3 × 10^-4 M), 90%; in test [1] (3 × 10^-5 M) it was 30%; in test [1] (3 × 10^-6 M), 20%; in test [1] (3 × 10^-7 M), 15%. The compound also registered an inhibition of twitch in test [1] (3 × 10^-8 M) of 10%. In addition, in test [1] (setting [4]), the IC50 came out at 62 µM.

As to `NCCCNCCCCNCCCNC(=O)Cc1cccc(O)c1` [Example 2, N-(3-Hydroxyphenylacetyl)-spermine], the results for the inhibition of twitch in test [1] (3 × 10^-7 M) and in test [1] (3 × 10^-8 M) were 35% and 30%, respectively.

Consider `NCCCNCCCCNCCCNC(=O)Cc1ccc(O)cc1` [Example 3, N-(4-Hydroxyphenylacetyl)-spermine], for which the inhibition of twitch is 74% in test [1] (2.95 × 10^-5 M); 91% in test [1] (4.43 × 10^-5 M); 96% in test [1] (5.9 × 10^-5 M); 25% in test [1] (5.9 × 10^-6 M); 9% in test [1] (5.9 × 10^-7 M). In test [1] (setting [4]), the IC50 was 8.7 µM. For the same compound, the “% inhibition of AMPA-induced depolarisation response” value in test [2] (10^-5 M) turned out to be 22%; in test [2] (10^-6 M), 0%. Further, the “% inhibition of NMDA-induced depolarisation response” value came to 35% in test [3] (10^-5 M) and 29% in test [3] (10^-6 M).

In the case of `NCCCNCCCCNCCCNC(=O)CCc1ccccc1O` [Example 4, N-(2-Hydroxyphenylpropanoyl)-spermine], the IC50 in test [1] (setting [5]) is roughly 50 µM.

Regarding `NCCCNCCCCNCCCNC(=O)CCc1cccc(O)c1` [Example 5, N-(3-Hydroxyphenylpropanoyl)-spermine], the inhibition of twitch is recorded as 15% in test [1] (1.08 × 10^-6 M) and 10% in test [1] (1.08 × 10^-7 M).

With `NCCCNCCCCNCCCNC(=O)C=Cc1ccc(O)cc1` [Example 6, N-(4-Hydroxycinnamoyl)-spermine], the inhibition of twitch amounted to 70% in test [1] (10^-5 M); 56% in test [1] (10^-6 M); 33% in test [1] (10^-7 M); 24% in test [1] (10^-8 M); 18% in test [1] (10^-9 M); 4% in test [1] (10^-10 M). Besides, in test [1] (setting [4]), the IC50 was 60 µM.

With `NCCCNCCCCNCCCNC(=O)Cc1ccc(O)cc1O` [Example 7, N-(2,4-Dihydroxyphenylacetyl)-spermine], the IC50 in test [1] (setting [5]) was roughly 50 µM.

For the compound `NCCCNCCCCNCCCNC(=O)Cc1ccc(O)c(O)c1` [Example 8, N-(3,4-Dihydroxyphenylacetyl)-spermine], the IC50 in test [1] (setting [5]) was roughly 500 µM.

Take `NCCCNCCCCNCCCNC(=O)Cc1cc(O)cc(O)c1` [Example 9, N-(3,5-Dihydroxyphenylacetyl)-spermine]: the inhibition of twitch was determined as 25% in test [1] (1 07 × 10^-6 M) and 45% in test [1] (1.07 × 10^-5 M).

For the compound `NCCCNCCCCNCCCNC(=O)c1ccccc1O` [Example 10], in test [1] (1.09×10^-5 M, 10.9 µM), the “reduction of twitch amplitude from control level” value was “approximately 25%”.

As to `NCCCNCCCCNCCCNC(=O)c1cccc(O)c1` [Example 11, N-(3-Hydroxybenzoyl)-spermine], the “reduction of twitch amplitude from control levels” value (from here on “reduction … from control levels”) in test [1] (1.02×10^-5 M, 10.2 µM) is recorded as “approximately 40%”.

For the compound `NCCCNCCCCNCCCNC(=O)c1ccc(O)cc1` [Example 12, N-(4-Hydroxybenzoyl)-spermine], the IC50 in test [1] (setting [5]) is roughly 50 µM.

On to `NCCCNCCCCNCCCNC(=O)C=Cc1cccc(O)c1` [Example 13, N-(3-Hydroxycinnamoyl)-spermine], for which the “reduction … from control levels” value in test [1] (9.2×10^-7 M, 0.92 µM) is on record as “approximately 25%”.

`NCCCNCCCCNCCCNC(=O)Cc1ccc(O)c(F)c1` [Example 14, N-(3-Fluoro-4-hydroxyphenylacetyl)-spermine]: in test [1] (setting [5]), the IC50 is roughly 500 µM.

On to `COc1ccccc1CC(=O)NCCCNCCCCNCCCN` [Example 15, N-(2-Methoxyphenylacetyl)-spermine], for which the IC50 in test [1] (setting [5]) was roughly 500 µM.

With `COc1ccc(CC(=O)NCCCNCCCCNCCCN)cc1` [Example 16, N-(4-Methoxyphenylacetyl)-spermine], the IC50 in test [1] (setting [5]) was roughly 500 µM.

On to `COc1ccccc1CC(=O)NCCCNCCCNCCCN` [Example 17, N-(2-Methoxyphenylacetyl)-N',N"-bis(3-aminopropyl)-1,3-propanediamine], for which the IC50 in test [1] (setting [5]) is roughly 900 µM.

As to `COc1ccc(CC(=O)NCCCNCCCNCCCN)cc1` [Example 18, N-(4-Methoxyphenylacetyl)-N',N"-bis(3-aminopropyl)-1,3-propanediamine], the IC50 in test [1] (setting [5]) is roughly 900 µM.

On to `NCCCNCCCNCCCNC(=O)Cc1ccccc1O` [Example 19, N-(2-Hydroxyphenylacetyl)-N',N"-bis(3-aminopropyl)-1,3-propanediamine], for which the IC50 in test [1] (setting [5]) is roughly 900 µM.

`NCCCNCCCNCCCNC(=O)Cc1cccc(O)c1` [Example 20, N-(3-Hydroxyphenylacetyl)-N',N"-bis(3-aminopropyl)-1,3-propanediamine]: the “reduction … from control levels” value in test [1] (1.04×10^-4 M, 104 µM) is listed as “approximately 60%”.

As to `NCCCNCCCNCCCNC(=O)Cc1ccc(O)cc1` [Example 21, N-(4-Hydroxyphenylacetyl)-N',N"-bis(3-aminopropyl)-1,3-propanediamine], the “reduction … from control levels” value in test [1] (1×10^-4 M, 100 µM) is reported as “approximately 30%”. For the same compound, the IC50 in test [1] (setting [5]) is roughly 900 µM.
